These results are taken from US20170348306A1, “METHODS OF TREATING CANCER” (GLAXOSMITHKLINE LLC, priority 2011, published 2017).

In one assay the test system is KARPAS-422 xenografts. Briefly: Subcutaneous tumor xenograft efficacy study. It counts as in vivo, mice. As to conditions: for tumor response upon cessation of dosing / tumor growth: KARPAS-422 xenografts. The protocol:
(§1) Biochemical assays utilized the 5-member PRC2 complex (human Flag-EZH2, EED, SUZ12, AEBP2, RbAp48) containing either WT or mutant EZH2, [^3H-]SAM and the indicated peptide substrate; reactions were incubated for 30 minutes. Global histone modification levels were determined by ELISA or western blot methods using antibodies specific for total histone H3, H3K27me1, H3K27me2, or H3K27me3. Cell proliferation and Caspase-3/7 activity were assessed using CellTiter-Glo and Caspase-Glo 3/7 (Promega), respectively. Gene expression profiling was conducted using Affymetrix Human Genome U133 Plus 2.0 microarrays. Differentially-expressed probe sets were determined by fitting the data to a linear model using the limma statistical package (http://www.bioconductor.org) and carrying out pair-wise contrasts of treated versus control. Significant probe sets were filtered for detection (log2 signal threshold of 8), an average fold-change >2 or <−2, or >1.5 or <−1.5, where indicated, with p-values adjusted for multiple testing correction by FDR (Benjamini Hochberg)<0.1. H3K27me3 ChIP reads were aligned using Bowtie (56). H3K27me3 enrichment peaks were identified using SICER (57) with optimized parameters. A custom PERL script was utilized to quantify the average basal H3K27me3 ChIP-seq tag density across gene sets. All in vivo studies were conducted after review by the Institutional Animal Care and Use Committee at GSK and in accordance with the GSK Policy on the Care, Welfare and Treatment of Laboratory Animals. GSK126 and vehicle were administered to mice intraperitoneally. Two-tailed t-tests were conducted assuming two samples of equal variance.
(§2) All studies were conducted after review by the Institutional Animal Care and Use Committee at GSK and in accordance with the GSK Policy on the Care, Welfare and Treatment of Laboratory Animals. […] Pfeiffer or KARPAS-422 cells (1×10^7) in 100% matrigel (BD Biosciences) were implanted subcutaneously in female beige SCID mice. Tumors were measured with calipers, block randomized according to tumor size into treatment groups. […] Mice were weighed and tumors measured with calipers twice weekly. For mouse pharmacokinetic studies, tumor and blood samples were harvested from euthanized mice at the indicated time. […] For pharmacodynamic studies, a portion of each tumor was frozen for H3K27me3/H3 ELISAs or placed in RNAlater (Ambion) for RNA isolation. For peripheral blood analyses, blood was harvested via cardiac puncture from euthanized, immunocompetent CD-1 mice (3 mice/group) on day 18. Blood was immediately placed into a Microtainer EDTA tube (BD) and gently mixed by inverting. A complete blood count analysis was conducted using the Advia 2120 hematology analyzer (Siemens Medical Solutions) using multi-species software as per manufacturer's instructions.

The next assay has as its system Pfeiffer xenografts. Kind of assay: Subcutaneous tumor xenograft efficacy study. Type of assay: in vivo, mice. As to conditions: daily 50 mg/kg, intraperitoneal. The protocol: as §1, §2
In another assay the test system is DLBCL cell lines. Briefly: Gene expression profiling (Affymetrix Human Genome U133 Plus 2.0). Type of assay: cell-based. The conditions noted are these: 72 hours. How it is done:
as §1
Cells (2×10^5/well) were seeded into six-well tissue culture plates in the appropriate cell culture media 24 hours before treatment. […] Cells were collected into Trizol reagent (Invitrogen) and total RNA was isolated via phenol:chloroform extraction and the RNeasy kit (Qiagen) according to the manufacturer's instructions. Total RNA was labeled and hybridized to Affymetrix Human Genome U133 Plus 2.0 oligonucleotide microarrays arrays according to the manufacturer's instructions (Affymetrix, Santa Clara, Calif., USA) at Expression Analysis (Durham, N.C.). […] Principal component and correlation analysis were used to confirm data reproducibility (FIG. 16).
CEL files, corresponding to individual samples, were processed by the Micro Array Suite 5.0 (MASS) algorithm (http://www.affyrmetrix.com/support/index.affx) where signal values were scaled to a target intensity of 500 and log2 transformed. Differentially expressed probe sets were determined by fitting the data to a linear model and carrying out pair-wise contrasts of treated versus control. […]

Assay [1] relates to B-cell lymphoma cell lines. Kind of assay: Cell proliferation assay (6 days, CellTiter-Glo), panel. Type of assay: cell-based. As to conditions: Homo sapiens, 144 h, read-out: growth IC50. The text has this:
Thus, Example 22 and Table 6 better reflect the inhibition of HZH2 inhibitors on cell lines, e.g. the lymphoma cell lines. DLBCL cell lines were the most sensitive to EZH2 inhibition (FIG. 11a). […] Evaluation of GSK126 in additional lymphoma cell lines and extensive genomic and epigenomic characterization will be required to fully elucidate the determinants of sensitivity among lymphoma subtypes.
Biochemical assays utilized the 5-member PRC2 complex (human Flag-EZH2, EED, SUZ12, AEBP2, RbAp48) containing either WT or mutant EZH2, [^3H-]SAM and the indicated peptide substrate; reactions were incubated for 30 minutes. Global histone modification levels were determined by ELISA or western blot methods using antibodies specific for total histone H3, H3K27me1, H3K27me2, or H3K27me3. Cell proliferation and Caspase-3/7 activity were assessed using CellTiter-Glo and Caspase-Glo 3/7 (Promega), respectively. Gene expression profiling was conducted using Affymetrix Human Genome U133 Plus 2.0 microarrays. Differentially-expressed probe sets were determined by fitting the data to a linear model using the limma statistical package (http://www.bioconductor.org) and carrying out pair-wise contrasts of treated versus control. […] H3K27me3 ChIP reads were aligned using Bowtie (56). […] A custom PERL script was utilized to quantify the average basal H3K27me3 ChIP-seq tag density across gene sets. […]

The subject of assay [2] is H3K27me3/2/1, histone H3, EZH2, SUZ12, EED in lymphoma cell lines. Kind of assay: Western blot of H3K27 methylation status and PRC2 components following GSK126 treatment. It counts as cell-based, human. The protocol:
Cell lines were obtained from the American Type Culture Collection or the Deutsche Sammlung von Mikroorganismen und Zellbulturen and maintained in the recommended cell culture media at 37° C. in 5% CO2. Cells were lysed with radioimmunoprecipitation (RIPA) buffer (ThermoScientific) and western blot analysis was conducted as previously described (41). Antibodies were obtained as previously described (41) or from Cell Signaling Technology (SUZ12, 3737), or Santa Cruz Biotechnology (EED, sc-28701).
Cells (2×10^5/well) were seeded into six-well tissue culture plates in the appropriate cell culture media 24 hours before treatment.

pIC50: −log10 of the molar value. Read-outs that look alike come from different tables or passages of the source. Some results are limits rather than exact numbers.

As to `CC[C@H](C)n1cc(C)c2c(C(=O)NCc3c(C)cc(C)[nH]c3=O)cc(-c3ccc(N4CCNCC4)nc3)cc21` [GSK126], in the assay on KARPAS-422 xenografts (KARPAS-422 xenografts with large tumors, intermittent dosing, weekly or with 1 week drug holiday, all schedules), the tumor growth inhibition is on record as 91-100%. For the same compound, the “tumor response upon cessation of dosing” value with KARPAS-422 xenografts (50 mg/kg QD group) is given as “tumor stasis”; with KARPAS-422 xenografts (150 mg/kg QD group), “complete tumor eradication”; in the assay with KARPAS-422 xenografts (300 mg/kg twice/week group) it was “complete tumor eradication”. The tumor growth entry in the assay with KARPAS-422 xenografts (daily 50 mg/kg, intraperitoneal) is listed as “complete tumor growth inhibition”; with KARPAS-422 xenografts (higher dosing regimens), “marked tumor regression”; in the assay on Pfeiffer xenografts, “complete tumor growth inhibition”. Further, the survival of mice result in the assay on KARPAS-422 xenografts (mice bearing KARPAS-422 tumors) is given as “statistically significant increased survival”. Also, the “up-regulated probe sets common to at least 4 of 5 mutant cell lines” value with DLBCL cell lines (Pfeiffer, KARPAS-422, WSU-DLCL2, SU-DHL-10, SU-DHL-6, 500 nM) is reported as 35 probe sets. Also, the down-regulated probe sets in the assay on DLBCL cell lines (Toledo, 2 μM GSK126) is listed as 10 probe sets. For the same compound, the up-regulated probe sets with DLBCL cell lines (Toledo, 2 μM GSK126) came to 23 probe sets. The “share of up-regulated among gene expression changes” value in the assay on DLBCL cell lines (five most sensitive EZH2 mutant cell lines, 500 nM) is reported as 69-95%. Also, the pIC50 in assay [1] (Burkitt (BL) and Hodgkin's (HL) lymphoma cell lines, with the exception of Jiyoye) was less than 5.89; in assay [1] (B-cell, six of the seven most sensitive DLBCL cell lines, harboring Y641N, Y641F, or A677G EZH2 mutations) it was 6.06 to 7.55. Also, the “Total histone H3 and PRC2 components” value in assay [2] (25 nM-2 μM, 72 hrs) is on record as “not affected”. Also, the H3K27me1 level result in assay [2] (72 hours) is listed as “only weakly reduced at the highest inhibitor concentration”.
